Data published in patent US20110021531A1, “OXAZOLE DERIVATIVES USEFUL AS INHIBITORS OF FAAH” (priority 2009, published 2011).

Experiments:
[1] = biological target: T1, human FAAH (Fatty Acid Amide Hydrolase) (Homo sapiens, UniProt O00519); assay: FAAH whole cell assay, CHO cells expressing human FAAH; type: cell-based
T1 construct: The full length FAAH was subcloned into the mammalian expression vector, pcDEF.neo
T1 sequence (O00519 1-579): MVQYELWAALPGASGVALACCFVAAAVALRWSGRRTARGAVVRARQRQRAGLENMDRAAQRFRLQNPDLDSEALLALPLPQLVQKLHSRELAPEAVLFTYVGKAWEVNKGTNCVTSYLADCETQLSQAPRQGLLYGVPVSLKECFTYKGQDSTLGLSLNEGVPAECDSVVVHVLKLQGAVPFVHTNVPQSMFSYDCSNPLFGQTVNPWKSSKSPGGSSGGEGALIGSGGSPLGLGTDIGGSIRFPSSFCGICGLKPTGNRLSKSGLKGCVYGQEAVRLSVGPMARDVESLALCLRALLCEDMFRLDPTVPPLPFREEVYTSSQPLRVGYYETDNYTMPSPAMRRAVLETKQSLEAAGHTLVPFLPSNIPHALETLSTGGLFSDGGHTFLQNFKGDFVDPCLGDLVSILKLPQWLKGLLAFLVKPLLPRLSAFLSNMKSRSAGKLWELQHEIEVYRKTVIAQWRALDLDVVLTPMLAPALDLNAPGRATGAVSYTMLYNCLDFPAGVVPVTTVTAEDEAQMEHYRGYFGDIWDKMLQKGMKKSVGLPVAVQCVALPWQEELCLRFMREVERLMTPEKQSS
From the text: (§1) To assist in assay development stable cell lines for human, murine and rat full length FAAH were developed. Human FAAH cDNA (Accession No: NM_001441.1) was purchased from Origene (Rockville, Md.). The full length FAAH was subcloned into the mammalian expression vector, pcDEF.neo, using XbaI and EcoRI restriction sites and used for stable cell line generation.
(§2) Murine (accession number NM_010173) and Rat FAAH (accession number NM_024132) was amplified by reverse transcriptase polymerase chain reaction (RT-PCR) from brain cDNA (BD Biosciences, San Jose, Calif.) using primers 1 and 2 or primers 1 and 3 respectively (see Table). The resulting PCR product was ligated into pCR4 TOPO and DNA sequence confirmed. The full length murine FAAH was subcloned into the mammalian expression vector, pcDEFneo using either EcoRI (murine) or KpnI and EcoRI (rat) restriction sites. Chinese hamster ovary cells (CHO) were transfected following manufacturers protocol (AMAXA). Forty eight hours post transfection, cells were trypsinized and transferred to 96 well plates in Iscove's DMEM media supplemented with 2 mM Glutamine, 10% fetal calf serum, 1 mg/ml geneticin and HT Supplement (0.1 mM sodium hypoxanthine, 0.016 mM thymidine) in order to isolate single clones. Following selection in geneticin, individual clones were selected and FAAH activity was assessed using a whole cell fluorescent anandamide assay, modified from Ramarao et al (2005). Following removal of tissue culture media cells were dislodged following addition of Cellstripper (Mediatech, Inc. Manassas, Va.) and transferred to 96 well black clear bottom assay plate, centrifuged at 1,000 rpm for 3 mins and media removed and replaced with assay buffer (50 mM Iris pH8.0, 1 mM EDTA, 0.1% fatty acid free BSA). The reaction was initiated by addition of fluorescent substrate, AMC Arachidonoyl Amide (Cayman Chemical, Ann Arbor, Mich.) to 1 μM and reaction allowed to proceed for 2 hours at room temperature. Release of fluorescence was monitored in a CytoFluor Multiplate Reader. Cells expressing the highest amount of FAAH activity were selected for study with FAAH inhibitors.
(§3) (American Radiolabeled Chemicals; 1 mCi/ml) with FAAH (Life Sciences (1995), 56, 1999-2005 and Journal of Pharmacology and Experimented Therapeutics (1997), 283, 729-734), Analytical. Biochemistry (2003), 318, 270-5. In addition, routine assays were performed monitoring hydrolysis of arachidonyl-7-amino-4-methylcoumarin amide (AAMCA) by following increase in fluorescence upon release of 7-amino 4-methyl coumarin (λEX=355 nm, (λEM=460 nm). Analytical. Biochemistry (2005). 343, 143-51
(§4) Assays are performed on either cell lysate or microsome fractions prepared as described or in whole cell format employing either the fluorescent substrate AAMCA (Cayman chemical, Ann Arbor, Mich.,) or ^3H-anandmaide ([ETHANOLAMINE-1-3H]American Radiolabeled Chemicals; 1 mCi/ml). The cell lysate or microsome assay is performed in Costar black wall, clear bottom plates by adding FAAH_CF10 (whole cell, cell lysate or microsome) in assay buffer (50 mM Phosphate, pH 8.0, 1 mM EDTA, 200 mM KCl, 0.2% glycerol, 0.1% fatty acid free BSA) to each well, followed by either DMSO or compound and allowed to incubate at 22-25° C. for fifteen minutes. AAMCA substrate was used to achieve a final concentration of 1 μM and reaction allowed to proceed at room temperature for 1-3 hours. Fluorescent release as a measure of FAAH activity was monitored by reading the plate in a CytoFluor Multiplate Reader (Ex: […]). Whole cell assay is conducted with cells harvested after rinsing tissue culture flasks three times with Ca^++Mg^++ free PBS, incubating for 10 min in Enzyme free dissociation media and centrifuging for 5 minutes at 1,000 rpm in table top centrifuge. Cells are resuspended in assay buffer at desired cell number in (4×10^4 cells/assay in 96-well format; 1×10^4 cells/assay in 384-well format) and assayed as described.

[2] = biological target: T2, rat FAAH (Fatty Acid Amide Hydrolase) (Rattus norvegicus, UniProt P97612); assay: FAAH whole cell assay, CHO cells expressing rat FAAH; type: cell-based
T2 sequence (P97612 1-579): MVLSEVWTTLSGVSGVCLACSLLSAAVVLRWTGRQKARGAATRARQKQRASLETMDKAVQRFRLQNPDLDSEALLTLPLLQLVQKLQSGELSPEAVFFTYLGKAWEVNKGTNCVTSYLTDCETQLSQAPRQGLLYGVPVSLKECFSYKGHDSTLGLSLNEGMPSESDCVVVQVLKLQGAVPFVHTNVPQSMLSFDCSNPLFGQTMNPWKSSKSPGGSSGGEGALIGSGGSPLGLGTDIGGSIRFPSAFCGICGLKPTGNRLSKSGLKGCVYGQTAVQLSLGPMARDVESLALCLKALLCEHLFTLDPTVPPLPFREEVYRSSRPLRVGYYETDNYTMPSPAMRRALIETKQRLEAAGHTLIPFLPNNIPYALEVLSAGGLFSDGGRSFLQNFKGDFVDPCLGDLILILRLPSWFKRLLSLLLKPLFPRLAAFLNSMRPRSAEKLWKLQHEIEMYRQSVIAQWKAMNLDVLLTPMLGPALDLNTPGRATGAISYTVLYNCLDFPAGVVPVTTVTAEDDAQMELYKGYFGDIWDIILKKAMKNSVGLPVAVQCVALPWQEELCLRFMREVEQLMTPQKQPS
From the text: as §1, §2, §3, §4

[3] = biological target: T1, human FAAH (Fatty Acid Amide Hydrolase); assay: FAAH enzyme assay on lysate of CHO cells expressing human FAAH; type: biochemical
From the text: as §1
CHO cells expressing FAAH were used to prepare either crude cell lysate or microsome fractions. To harvest cells, tissue culture media was decanted, the monolayer washed three times with Ca^++Mg^++ free PBS and cells recovered after […] in enzyme free dissociation media (Millipore Corp, Billerica, Mass.). Cells were collected by centrifuging at 2000 rpm for 15 min. and the cell pellet re-suspended with 50 mM HEPES (pH 7.4) containing 1 mM EDTA and the protease inhibitors aprotinin (1 mg/ml) and leupeptin (100 μM). The suspension was sonicated at 4° C. and the cell lysate recovered after centrifuging at 12,000×g (14,600 rpm, SS34 rotor) for 20 min at 4° C. to form a crude pellet of cell debris, nuclei, peroxisomes, lysosomes, and mitochondria; the supernatant or cell lysate was used for FAAH enzyme assay. In some cases, microsomes fractions enriched in FAAH were prepared by centrifuging the cell lysate further at 27,000 rpm (100,000×g) in SW28 rotor for 50 minutes at 4° C. The pellet containing FAAH-enriched microsomes was re-suspend in 50 mM HEPES, (pH 7.4) 1 mM EDTA, and any remaining DNA sheared by passage of material through a 23 gauge needle and aliquots of enzyme were store at −80° C. prior to use.
as §3, §4
Alternatively, assays are performed using anandamide [ethanolamine 1-^3H] (specific activity of 10 Ci/mmol) diluted with cold anandamide to achieve a final assay concentration of 1 μM anandamide (˜50,000 cpm). Enzyme (CHO cell lysate, brain or liver homogenate) is incubated in assay buffer (50 mM Phosphate, pH 8.0, 1 mM EDTA, 200 mM KCl, 0.2% glycerol, 0.1% fatty acid free BSA) with inhibitor at 25° C. for 30 minutes. The reaction was terminated by addition of 2 volumes of chloroform:methanol (1:1) and mixed by vortexing. […]

Structure (SMILES)	IC50 [1] [nM]	IC50 [2] [nM]	IC50 [3] [nM]
CC(C)(O)c1ccc(-c2nc(Cc3ccc(F)cc3)oc2Sc2ccc(Cl)cn2)cn1 [Ex 123, 2-(5-{5-[(5-Chloropyridin-2-yl)sulfanyl]-2-(4-fluorobenzyl)-1,3-oxazol-4-yl}pyridin-2-yl)propan-2-ol]	510	286	74
COC(=O)c1cnc(-c2nc(-c3ccc(F)cc3)oc2Sc2ccc(Cl)cn2)nc1 [Ex 124, Methyl 2-{5-[(5-chloropyridin-2-yl)sulfanyl]-2-(4-fluorophenyl)-1,3-oxazol-4-yl}pyrimidine-5-carboxylate]	98	16	11
CC(C)(O)c1ccc(-c2nc(-c3ccccn3)oc2Sc2ccc(F)cn2)cn1 [Ex 125]	2290	680	93
CC(C)(O)c1ccc(-c2nc(-c3ccccn3)oc2Sc2ncc(Cl)cn2)cn1 [Ex 131]	1120	782	140
